Assays:
[1] = system: MVECs; experiment: MVEC migration assay with synthetic peptides; format: cell-based; settings: 10 ng/ml, 5 hours
Protocol: MVEC migration was evaluated as described above except that MVECs from passage 3 were incubated in EBM-MV SFM. […] The presence of migratory cells was detected using the fluorescent ELISA reader at 480/520 nm (Fluostar BMG Lab Teck) as described in Example 2, hereinabove. […]

[2] = system: MVECs; experiment: Tube formation assay, MVECs; format: cell-based; settings: normoxic conditions, 10 ng/ml, matrigel
Protocol: Tube formation assay—ECs from passage 3 or MVECs from passage 4 were harvested with trypsin and incubated for 24 hours in SFM. Twenty-four—well plates were pre-coated with 250 μl of Cultrex Basement Membrane Extract with reduced growth factors (R&D Systems, Minneapolis, Minn., USA). Five hundred microliters of medium containing 10^6 cells were transferred to the coated wells. Synthetic peptides, FGF, YR, QF, or VL were added to ECs, and VEGF, YR, QF, or VL were added to MVECs at 10 ng/ml. Plates were incubated for 24 hours at 37° C. in the presence of 5% CO2. HUVECs and MVECs were photographed under a light microscope at 20 hours and 8 hours, respectively.
Tube formation assay after and under hypoxia treatment—Tube formation assay was performed as described in Example 3, hereinabove, except that the cells were divided to 3 groups: control cells, cells after exposure to hypoxia conditions, and cells on matrigel basement that form tubes under hypoxia treatment.

[3] = system: VEGF-A; experiment: Real time PCR gene expression in MVECs, VEGF-A; format: cell-based; parameters: key: increased (+); non-increased (−); settings: 1 ng/ml peptide
Protocol: (§1) Real Time PCR—MVECs from passage 3 were incubated for 24 hours in EBM-MV supplement-free medium (starving media). Following starvation, 1 ng/ml of synthetic peptides LT, QF, SP, TR, YR, and VL and 10 ng/ml of VEGF were added to the plates. Following 1.5 or 6 hours of incubation, total RNA was extracted using TRIsol reagent (Invitrogen Life Technologies, Carlsbad Calif., USA) and 0.8 μg of the extracted RNA was used as a template for reverse transcription (Invitrogen) using random primers (SuperScript III First-Strand Synthesis System for RT-PCR (hvitrogen, Carlsbad Calif., USA) according to the manufacturer's instructions. Resulting cDNAs were subjected to real time PCR amplification using the ABI prism 7000 Sequence Detection System (Applied Biosystems, Foster City, Calif., USA). Oligonucleotide primers were designed using Primer Express Software (Applied Biosystems, Foster City, Calif., USA) according the translated region of VEGF-A (Accession No:NM_003376), VEGF-C (Accession No:NM_005429), KDR (Accession No:NM_002253), FLT-1 (Accession No:NM_002019), HIF-α (Accession No:HSU22431), and GAPDH (Accession No:NM_002046) and are listed in Table 6, hereinbelow. Briefly, a reaction mixture of 20 μl consisting of DDW, oligonucleotide primers (500 nM), cDNA (3 μl), and SYBR Green PCR master kit (Applied Biosystems, Foster City, Calif., USA) was subjected to an amplification program of 15 seconds at 95° C., and 60 seconds at 60° C. for 40 cycles. Results were analyzed using the Sequence Detector Software Version 1 (Applied Biosystenis).
(§2) Peptides effect on gene expression in MVECs—The effect of the synthetic peptides on the expression in MVECs of selected genes (VEGF-A, VEGF-C, KDR, FLT-1 and HIF-1α) related to the VEGF pathway (a major pathway that participated in angiogenic process) was tested. Synthetic peptides were added at 1 ng/ml for 1.5 and 6 hours. After incubation with peptide, RNA was extracted from MVECs and Real Time PCR was performed. Gene expression was calculated as peptide/control (cells without peptide treatment) ratio.

[4] = system: VEGF-C; experiment: Real time PCR gene expression in MVECs, VEGF-C; format: cell-based; parameters: key: increased (+); non-increased (−); settings: 1 ng/ml peptide
Protocol: as §1, §2

[5] = system: FLT-1; experiment: Real time PCR gene expression in MVECs, FLT-1; format: cell-based; parameters: key: increased (+); non-increased (−); settings: 1 ng/ml peptide, 1.5 hours
Protocol: as §1, §2

[6] = system: KDR; experiment: Real time PCR gene expression in MVECs, KDR; format: cell-based; parameters: key: increased (+); non-increased (−); settings: 1 ng/ml peptide, 6 hours
Protocol: as §1, §2

[7] = system: ears of nude mice and Balb/C mice; experiment: In vivo angiogenesis in a mouse-ear model
Protocol: In Wivo angiogenesis in a mouse-ear model—Ear angiogenesis studies were a modification of an approach described previously (Pettersson, 2000). […] Contralateral ears were injected only with PBS. […] Two days after peptide inoculation, angiogenic effect of peptides could be observed.
Histological sections—Histological sections of the mouse-ears injected with the angiogenic peptides were performed by fixing tissues in 4% buffered formalin. Sections were embedded in paraffin blocks sectioned in 4 μm thick layers and stained with hematoxolin-eosin.

[8] = system: mouse ischemic hind limb; experiment: Mouse ischemic hind limb model, physiological observations (ladder climbing); format: in vivo; parameters: key: 1 = walk and climb ... 4 = walk with difficulty, cannot climb; settings: mean score of 10 mice, 10 μg
Protocol: (§3) Mouse ischemic hind limb model—Ischemia was created in the mouse left hind limb by ligation of the femoral artery. The right hind limb served as control. A day after the operation each of the peptides was injected into one site close to the ligation and one site distal to the ligation. Each mouse was treated with each of the peptides in a total amount of 10 μg.
Physiological observations—Ischemic mice were evaluated for their ability to climb a ladder on day 1, 4, 7, and 10-post operation. The scoring system was as follows: 1—walk and climb; 2—walk and climb with some difficulty, 3—walk and cannot climb the ladder; 4—walk with difficulties and cannot climb the ladder.

[9] = system: mouse ischemic hind limb; experiment: Mouse ischemic hind limb model, blood perfusion (Laser Doppler Imager); format: in vivo; settings: 14 and 19 days following peptide injection, 10 μg
Protocol: as §3
Blood perfusion in ischemic mice—The percent of blood perfusion was measured using a Laser Doppler Imager (PeriMed, Sweden) at 14 and 19 days after peptides injections. The average percent perfusion of each limb was computed and expressed as the ischemic (left)/control (right) blood perfusion ratio.

## VPWMEPAYQRFL (Phage displayed peptide) [VL]
[1]
  Increase in MVECs migration, peptides as chemoattractants: 2 fold
[2]
  MVEC tube formation compared to untreated cells: significant increase in tube formation
[3]; 1.5 hours
  VEGF-A Expression after 1.5 hours: +
[3]; 6 hours
  VEGF-A Expression after 6 hours: +
[4]; 1.5 hours
  VEGF-C Expression after 1.5 hours: +
[4]; 6 hours
  VEGF-C Expression after 6 hours: +
[5]
  FLT-1 Expression after 1.5 hours: +
[6]
  KDR Expression after 6 hours: +
[7]; 10 μg/ear, 5 days after inoculation
  Number of blood vessels: 14
[7]; mouse ears, contralateral ear PBS
  Peptide/PBS = ratio between the No. of blood vessels in the peptide-injected ear and in the PBS-injected ear: 5.6
[8]; 1 = walk and climb ... 4 = walk with difficulties and cannot climb, day 1 post operation
  Physiological score (ability to climb a ladder) Day 1: 2.75
[8]; scale 1-4, day 4 post operation
  Physiological score (ability to climb a ladder) Day 4: 2
[8]; scale 1-4, day 7 post operation
  Physiological score (ability to climb a ladder) Day 7: 1.6
[8]; scale 1-4, day 10 post operation
  Physiological score (ability to climb a ladder) Day 10: 1.4
[9]
  The blood perfusion ratio (in percentages) of the ischemic vs. control limbs, Mean: 95.560 percentages
